Reference: article PMC4403932 (Journal of Medicinal Chemistry, 2015)
Like-named read-outs stand apart in the source and are kept apart here.

Experiments:
Format in all cases: binding
[1] = target: T1, BRD9 (Homo sapiens, UniProt Q9H8M2); assay: Isothermal titration calorimetry, BRD9; conditions: ITC, 50 mM HEPES pH 7.5, 150 mM NaCl, 15 °C, reverse titration, triplicate
T1 construct: made in house
T1 sequence (Q9H8M2 136-240 limits assumed): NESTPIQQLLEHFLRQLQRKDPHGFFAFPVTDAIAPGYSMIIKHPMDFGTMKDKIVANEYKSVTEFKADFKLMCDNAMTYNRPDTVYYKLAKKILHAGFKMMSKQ
Protocol: Experiments were carried out on an ITC200 titration microcalorimeter from MicroCal, LLC (GE Healthcare) equipped with a Washing module, with a cell volume of 0.2003 mL, and a 40 μL microsyringe. Experiments were carried out at 15 °C while stirring at 1000 rpm, in ITC buffer (50 mM HEPES, pH 7.5 (at 25 °C), 150 mM NaCl). The microsyringe was loaded with a solution of the protein sample (300−740 μM protein for BRD9 and BRD4(1), respectively, in ITC buffer) and was carefully inserted into the calorimetric cell which was filled with an amount of the ligand (0.2 mL, 20–25 μM in ITC buffer). The system was first allowed to equilibrate until the cell temperature reached 15 °C, and an additional delay of 60 s was applied. All titrations were conducted using an initial control injection of 0.3 μL followed by 38 identical injections of 1 μL with a duration of 2 s (per injection) and a spacing of 120 s between injections. The titration experiments were designed in such a fashion as to ensure complete saturation of the proteins before the final injection. The heat of dilution for the proteins was independent of their concentration and corresponded to the heat observed from the last injection, following saturation of ligand binding, thus facilitating the estimation of the baseline of each titration from the last injection. The collected data were corrected for protein heats of dilution (measured on separate experiments by titrating the proteins into ITC buffer) and deconvoluted using the MicroCal Origin software supplied with the instrument to yield enthalpies of binding (ΔH) and binding constants (KB) in the same fashion as that previously described in detail by Wiseman and co-workers.[66] Thermodynamic parameters were calculated using the basic equation of thermodynamics (ΔG = ΔH – TΔS = −RT ln KB, where ΔG, ΔH, and ΔS are the changes in free energy, enthalpy, and entropy of binding, respectively). In all cases a single binding site model was employed, supplied with the MicroCal Origin software package.

[2] = target: T1, BRD9; assay: Protein stability (thermal) shift assay, BRD9; conditions: compound 10 μM, protein 2 μM; average of triplicate; read-out: ΔTm Shift, BRD9
[3] = target: T2, BRD4(1) (Homo sapiens, UniProt O60885); assay: Protein stability (thermal) shift assay, BRD4(1); conditions: compound 10 μM, protein 2 μM; average of triplicate; read-out: ΔTm Shift, BRD4(1)
T2 construct: made in house

[4] = target: T3, BRD2(1) (Homo sapiens, UniProt P25440); assay: Protein stability (thermal) shift assay, BRD2(1); conditions: compound 10 μM, protein 2 μM; average of triplicate
T3 construct: Fragments were tested in a thermal shift assay against bromodomains of the BET subfamily; made in house
T3 sequence (P25440 74-180 limits assumed): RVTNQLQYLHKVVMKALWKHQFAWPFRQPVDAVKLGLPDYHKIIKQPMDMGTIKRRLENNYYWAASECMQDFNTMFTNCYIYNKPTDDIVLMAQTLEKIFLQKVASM

[5] = target: T4, PCAF (Homo sapiens, UniProt Q92831); assay: Protein stability (thermal) shift assay, PCAF; conditions: compound 10 μM, protein 2 μM; average of triplicate
T4 construct: representative BRDs from other structural subfamilies (family I, PCAF); made in house
T4 sequence (Q92831 723-827 limits assumed): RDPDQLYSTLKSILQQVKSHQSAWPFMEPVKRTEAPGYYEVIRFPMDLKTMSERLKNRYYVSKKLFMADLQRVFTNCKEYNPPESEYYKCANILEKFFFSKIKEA

[6] = target: T5, CREBBP (Homo sapiens, UniProt Q92793); assay: Protein stability (thermal) shift assay, CREBBP; conditions: compound 10 μM, protein 2 μM; average of triplicate; read-out: ΔTm Shift, CREBBP
T5 construct: small thermal shits (1.0–1.3 °C) for the bromodomain of CREBBP; made in house
T5 sequence (Q92793 1085-1192 limits assumed): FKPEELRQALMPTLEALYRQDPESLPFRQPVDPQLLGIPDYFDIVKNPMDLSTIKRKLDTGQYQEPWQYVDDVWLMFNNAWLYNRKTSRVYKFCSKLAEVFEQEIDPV

[7] = target: T6, BRDT(2) (Homo sapiens, UniProt Q58F21); assay: Protein stability (thermal) shift assay, BRDT(2)
T6 construct: made in house

[8] = target: T7, PB1(5) (Homo sapiens, UniProt Q86U86); assay: Protein stability (thermal) shift assay, PB1(5); conditions: compound 10 μM, protein 2 μM; average of triplicate
T7 construct: made in house
T7 sequence (Q86U86 653-763 limits assumed): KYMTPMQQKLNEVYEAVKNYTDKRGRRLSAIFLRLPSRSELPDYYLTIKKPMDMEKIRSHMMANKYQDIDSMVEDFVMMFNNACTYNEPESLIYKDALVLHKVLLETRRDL

[9] = target: T8, BRD2(2) (Homo sapiens, UniProt P25440); assay: Protein stability (thermal) shift assay, BRD2(2); conditions: compound 10 μM, protein 2 μM; average of triplicate
T8 construct: made in house
T8 sequence (P25440 344-453 limits assumed): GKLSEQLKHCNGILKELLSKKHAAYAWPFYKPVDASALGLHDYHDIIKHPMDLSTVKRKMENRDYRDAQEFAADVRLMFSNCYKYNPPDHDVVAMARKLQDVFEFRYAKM

[10] = target: T9, BRD3(1) (Homo sapiens, UniProt Q15059); assay: Protein stability (thermal) shift assay, BRD3(1); conditions: compound 10 μM, protein 2 μM; average of triplicate
T9 construct: Fragments were tested in a thermal shift assay against bromodomains of the BET subfamily; made in house
T9 sequence (Q15059 34-140 limits assumed): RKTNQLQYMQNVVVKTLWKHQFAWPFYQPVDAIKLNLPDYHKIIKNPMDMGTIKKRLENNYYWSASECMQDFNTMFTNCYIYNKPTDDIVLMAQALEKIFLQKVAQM

[11] = target: T10, BRD3(2) (Homo sapiens, UniProt Q15059); assay: Protein stability (thermal) shift assay, BRD3(2); conditions: compound 10 μM, protein 2 μM; average of triplicate
T10 construct: made in house
T10 sequence (Q15059 306-415 limits assumed): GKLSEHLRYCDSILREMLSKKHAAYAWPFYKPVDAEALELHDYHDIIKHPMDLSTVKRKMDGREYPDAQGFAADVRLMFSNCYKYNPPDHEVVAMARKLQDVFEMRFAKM

[12] = target: T11, BRD4(2) (Homo sapiens, UniProt O60885); assay: Protein stability (thermal) shift assay, BRD4(2); conditions: compound 10 μM, protein 2 μM; average of triplicate
T11 construct: made in house

[13] = target: T12, BRDT(1) (Homo sapiens, UniProt Q58F21); assay: Protein stability (thermal) shift assay, BRDT(1); conditions: compound 10 μM, protein 2 μM; average of triplicate
T12 construct: made in house

[14] = target: T13, BAZ2B (Homo sapiens, UniProt Q9UIF8); assay: Protein stability (thermal) shift assay, BAZ2B; conditions: compound 10 μM, protein 2 μM; average of triplicate; read-out: ΔTm Shift, BAZ2BA
T13 construct: representative BRDs from other structural subfamilies (family I, PCAF); family III, CREBBP; family IV, BRD9; family V, BAZ2B; made in house
T13 sequence (Q9UIF8 2060-2164 limits assumed): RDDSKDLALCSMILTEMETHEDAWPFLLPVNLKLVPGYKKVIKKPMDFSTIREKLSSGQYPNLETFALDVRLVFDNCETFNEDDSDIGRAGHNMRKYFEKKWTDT

[15] = system: human bromodomains (panel); assay: Protein stability (thermal) shift assay, whole panel of human bromodomains; conditions: 10 μM compound
Protocol: Thermal melting experiments were carried out using an Mx3005p real time PCR machine (Stratagene). Proteins were buffered in 10 mM HEPES, pH 7.5, 500 mM NaCl and assayed in a 96-well plate at a final concentration of 2 μM in 20 μL volume. Compounds were added at a final concentration of 10 or 100 μM. SYPRO Orange (Molecular Probes) was added as a fluorescence probe at a dilution of 1 in 1000. Excitation and emission filters for the SYPRO-Orange dye were set to 465 and 590 nm, respectively. The temperature was raised with a step of 3 °C per minute from 25 to 96 °C, and fluorescence readings were taken at each interval. The temperature dependence of the fluorescence during the protein denaturation process was approximated by the equation [drawing 1] where ΔuG is the difference in unfolding free energy between the folded and unfolded state, R is the gas constant, and yF and yU are the fluorescence intensity of the probe in the presence of completely folded and unfolded protein, respectively.[65] The baselines of the denatured and native states were approximated by a linear fit. The observed temperature shifts, ΔTm^obs, were recorded as the difference between the transition midpoints of sample and reference wells containing protein without ligand in the same plate and determined by nonlinear least-squares fit. Temperature shifts (ΔTm^obs) for three independent measurements per proteins/compound are summarized in Supporting Information Table S1.

[16] = compound 10 μM, protein 2 μM, average of triplicate, read-out: ΔTm Shift, BRDT(2)

Row | Structure (SMILES) | KD [1] | ΔTm at 10 µM [2] [°C] | ΔTm at 10 µM [3] [°C] | ΔTm at 10 µM [4] [°C] | ΔTm at 10 µM [5] [°C] | ΔTm at 10 µM [6] [°C] | ΔTm at 10 µM [7, 16] [°C] | ΔTm at 10 µM [8] [°C] | ΔTm at 10 µM [9] [°C] | ΔTm at 10 µM [10] [°C] | ΔTm at 10 µM [11] [°C] | ΔTm at 10 µM [12] [°C] | ΔTm at 10 µM [13] [°C] | ΔTm at 10 µM [14] [°C] | binding to the bromodomain panel in the ΔTm assay (in words) [15] | ΔTm at 10 µM ([7]; thermal shift, 10 μM compound, 2 μM protein, read-out: ΔTm) [°C]
1 | CCCCOc1cc(Br)cc(-c2nc(N)nc3c2ncn3C)c1 [Compound 5b, 2-Amino-6-(3-bromo-5-butoxyphenyl)-9-methylpurine] | no binding/weak | -0.56 | 0.633 | -0.153 | 0.9 | 1.3 | 1 | 0.5 | 0.163 | 0.227 | 0.5 | 0.373 | 0.45 | 0.217 | very weak or no binding | –
2 | COc1ccc(-c2nc(N)nc3c2ncn3C)cc1 [Compound 3c, 2-Amino-6-(4-methoxyphenyl)-9-methylpurine] | – | -0.32 | -0.7 | -1 | -1.1 | 1.1 | -2.5 | -0.0233 | -0.5 | -1 | -0.7 | -3.8 | -0.7 | -1.3 | very weak or no binding | –
3 | COc1ccc(F)cc1-c1nc(O)nc2[nH]cnc12 [Compound 8d, 6-(5-Fluoro-2-methoxyphenyl)-2-hydroxy-9H-purine] | – | -0.8 | 0.9 | 1 | 0.535 | 0.34 | 0.368 | 0.564 | 0.5 | 0.9 | 0.187 | 0.7 | 0.9 | 0.277 | lost affinity across the panel | –
4 | COc1ccc(Br)cc1-c1nc(O)nc2[nH]cnc12 [Compound 8f, 6-(5-Bromo-2-methoxyphenyl)-2-hydroxy-9H-purine] | – | -0.66 | 1.2 | 1 | 0.378 | 0.6 | 1 | 0.8 | 0.5 | 0.55 | 0.853 | 0.7 | 0.653 | 0.563 | lost affinity across the panel | –
5 | COc1ccc(F)cc1-c1ncnc2[nH]c(C)nc12 [Compound 9b, 6-(5-Fluoro-2-methoxyphenyl)-8-methyl-9H-purine] | – | 0.8 | 0.0286 | 0.0729 | -1.5 | 0.259 | – | 0.0705 | 0.9 | 0.2 | 0.341 | 0.148 | 0.2 | 0.2 | very low affinity for all bromodomains | 2.9
6 | Cn1cnc2c(-c3ccc(Oc4ccccc4)cc3)nc(N)nc21 [Compound 3e, 2-Amino-6-(4-phenoxyphenyl)-9-methylpurine] | – | 0.257 | 1 | 0.32 | 1 | 1.3 | 1.2 | 0.8 | 0.463 | 0.743 | 0.8 | 0.8 | 0.6 | 0.6 | very weak or no binding | –
7 | COc1ccc(Br)cc1-c1nc(N)nc2c1ncn2CC(C)=O [Compound 8c, 2-Amino-6-(5-bromo-2-methoxyphenyl)-9-(2-oxopropyl)-purine] | – | -0.109 | 0.24 | 0.0207 | -0.6 | -0.07 | 0.571 | 0.243 | 0.0227 | 0.275 | 0.535 | -0.431 | 0.151 | -0.06 | could not be tolerated | –
